# Assay results: PMC4644980, “The FDA-approved natural product dihydroergocristine reduces the production of the Alzheimer’s disease amyloid-β peptides” (Scientific Reports, 2015)
# Several values for one entry are separate records, joined by “and”; a condition that tells them apart may be missing. Equal entries are not always repeated. Structures can show the parent of a compound that is named as a salt.
# Experiments:
# [1] = molecular target: T1, purified γ-secretase (Homo sapiens, UniProt P49768+Q92542); experiment: cell-free in vitro C100-Flag γ-secretase assay with purified enzyme; type: biochemical
# T1 construct: made in house
# From the text: The density of the AICD-Flag and Aβ total bands was quantified by Odyssey software (Supplementary data Fig. S5). […] The residue was then separated by Bicine/urea SDS-PAGE, together with an Aβ standard of synthetic human Aβ38, Aβ40 and Aβ42, followed by Western blot detection with anti-Aβ antibody (6E10, left panel), or quantification by ELISA (right panel). Black bars, Aβ [1–40]; gray bars, Aβ[1–42]. Data were presented as the means ± sd. […] The change in response units over time is shown. […]
# γ-Secretase was purified from S-20 cells as described previously. The recombinant APP-based protein substrate of γ-secretase, namely human C100-Flag, was overexpressed in E. coli and purified by using an anti-Flag M2 resin[31]. Full length human NCT was purified as described previously (for details, see Supplementary information)[32].
# Cell-free in vitro γ-secretase assays using the recombinant C100-Flag substrate and purified γ-secretase were performed as described in the Supplementary information.
# Aβ1-x peptides secreted in the cell media were quantitatively measured by ELISA (IBL, Gunma, Japan) according to the standard protocol from the manufacturer. Aβ40 and Aβ42 generated in the C100-Flag γ-secretase assays stopped with 0.5% SDS (final concentration) were quantified with the human Beta Amyloid or [1–42] colorimetric ELISA kit, respectively. […]
# γ-Secretase activity assays
# γ-Secretase purified from S-20 cells was solubilized in 0.2% (w/v) CHAPSO in 50 mM HEPES buffer (pH 7.0) containing of 150 mM NaCl, 5 mM MgCl2 and 5 mM CaCl2, and incubated with 0.1% (w/v) PC and 1 μM or otherwise indicated […]
# (§1) concentrations of substrate at 37 °C for 4 h, after which the enzymatic reactions were stopped by adding 0.5% SDS (final concentration). The samples were analyzed by Western Blot for AICD-Flag or Aβ. […]
# [2] = molecular target: γ-secretase (Homo sapiens, UniProt P49768+Q92542); experiment: cell-based luciferase reporter assay for γ-secretase inhibition (T100 cells); design: endogenous in cells; host or cells: T-REx HeLa cells (T100) stably transfected with the substrate C99-Gal4-VP16 and a luciferase reporter; settings: 24 h, read-out: IC50 for inhibiting the activity of γ-secretase in T100 cells
# Method: To identify natural product-based bioactive inhibitors of γ-secretase, we screened 417 natural products by using a cell-based luciferase reporter assay for γ-secretase inhibition (T100, see Methods), which we recently developed in TREx HeLa cells according to the methodology described in ref. [17]. […] Thus, this assay is sufficiently sensitive to detect the inhibitory effects of 100 nM DAPT on cellular γ-secretase activity. Additionally, this new cell-based assay tolerated up to 2% DMSO, which is a great advantage when screening inhibitors in a high-throughput format.
# T-REx-HeLa cells (T100) stably overexpressing C99-Gal4-VP16 and luciferase were generated according to the method described in refs [17],[30]. For details, see Supplementary Information.
# Cell-based γ-secretase assays were performed using the T100 cell line according to the methods detailed in ref. [30] (for details, see Supplementary information). […]
# as §1
smiles,measurement,setting,value
"CC(C)[C@@]1(NC(=O)[C@@H]2C[C@@H]3c4cccc5[nH]cc(c45)C[C@H]3N(C)C2)O[C@@]2(O)[C@@H]3CCCN3C(=O)[C@H](Cc3ccccc3)N2C1=O [DHEC, Dihydroergocristine methanesulfonate salt]",γ-secretase-dependent processing of C100-Flag into AICD-Flag or Aβ,"[1]; 1 μM C100-Flag, 37 °C, 4 h",inhibited
same,inhibitory effect on γ-secretase at high substrate concentration,[1]; 4 μM APP-C100 compared to 1 μM,greatly reduced inhibitory effect
same,The potency of compound (in vitro C100 γ-secretase assay),"[1]; 200 µM, compared with DHEC, estimated by densitometry",++
same,IC50,"[1]; IC50, Aβ40 and Aβ42 production (cell-free assay), 1 μM C100-Flag, 37 °C, 4 h, ELISA",~100 µM and 100 µM
same,IC50,[2],20 µM and ~25 µM
